{"source": "patent US20140161722A1", "about": "“USE OF PYRIMIDINE DERIVATIVES FOR THE TREATMENT OF EGFR DEPENDENT DISEASES OR DISEASES THAT HAVE ACQUIRED RESISTANCE TO AGENTS THAT TARGET EGFR FAMILY MEMBERS” (priority 2008, published 2014)", "tested_on": "EGFR inhibitor resistant NSCLC cell line NCI-H1975", "assay": "in vivo antitumor activity against s.c. NCI-H1975 tumors in athymic mice", "description": "Female Harlan athymic mice (n=6), bearing s.c NCI-H1975 tumors are treated p.o. with the PI3K inhibitor Compound A at 50 mg/kg every day for the duration of the treatment. * p<0.05 (Dunnet's vs controls).\nNon small cell lung carcinoma cell lines with EGFR mutant forms, but refractory to EGFR inhibition therapy, are valuable models to test the sensitivity of PI3K inhibitors like the compounds of formula I in such genetic background. The NCI-H1975 cell line is such a model as is highly tumorigenic in vivo. Moreover, it contains HER1 bearing the T790M gatekeeper mutation that renders the kinase resistant to catalytic inhibition by compounds such as gefitinib. The in vivo antitumor activity of PI3K inhibitors like the compounds of formula I is tested against this EGFR driven and EGFR tyrosine kinase inhibitor resistant tumor model (FIG. 1).", "data": [{"smiles": "Nc1cc(C(F)(F)F)c(-c2cc(N3CCOCC3)nc(N3CCOCC3)n2)cn1", "note": "[Compound A, 5-(2,6-di-morpholin-4-yl-pyrimidin-4-yl)-4-trifluoromethyl-pyridin-2-ylamine]", "values": [{"measurement": "antitumor activity (tumor growth)", "setting": "female Harlan athymic mice, s.c. NCI-H1975 tumors (HER1 T790M), 50 mg/kg p.o. every day, p<0.05 Dunnet's vs controls (FIG. 1)", "value": "in vivo tumor growth inhibition"}, {"measurement": "mean body weight, control vs treatment group", "setting": "mice bearing s.c. NCI-H1975 tumors, 50 mg/kg p.o. every day (FIG. 2)", "value": "no statistically significant difference in body weight"}, {"measurement": "tolerability", "setting": "mouse, in vivo, 50 mg/kg", "value": "well tolerated"}]}]}
